Source: patent publication US20050255509A1, “In vivo measurement of the relative fluxes through ribonucleotide reductase vs. deoxyribonucleoside pathways using isotopes” (KineMed, Inc., priority 2004, published 2005)

Assays:
[1] = system: EMT7 mouse mammary carcinoma cells; experiment: Tumor volume by caliper over 5 days of chemotherapy; type: in vivo; conditions: balb/C mice with EMT7 tumors, 125 mg/kg Gem every other day or 500 mg/kg HU daily
Procedure: (§1) Female balb/C mice were implanted subcutaneously with approximately 10^6 EMT7 mouse mammary carcinoma cells in matrigel and allowed to reach ca.1500 mm^3. Mice were labeled with 2H2O with an i.p. bolus and treatment with either 125 mg/kg gemcitabine (Gem) or 500 mg/kg HU began. Gem was administered every other day, HU daily. At then end of 5 days tumors were removed, measured, homogenized and DNA was isolated as described, supra. Bone marrow was isolated using standard techniques. Bone marrow DNA was isolated as described, supra. GC/MS analysis was described as carried out, and calculations of RR activity and cell proliferation were carried out for both tumor and bone marrow tissues. Tumor volume was also measured by use of a caliper as is standard in the art.

[2] = biological target: T1, ribonucleotide reductase (RR) (Homo sapiens, UniProt P23921+P31350); experiment: RR activity measured by 2H2O in SW1573 cells; type: cell-based; design: endogenous in cells; host or cells: SW1573 non-small cell lung carcinoma cells; conditions: 24 hours; for RR activity, % of control: level reached with increasing doses
T1 sequence (P23921 1-792): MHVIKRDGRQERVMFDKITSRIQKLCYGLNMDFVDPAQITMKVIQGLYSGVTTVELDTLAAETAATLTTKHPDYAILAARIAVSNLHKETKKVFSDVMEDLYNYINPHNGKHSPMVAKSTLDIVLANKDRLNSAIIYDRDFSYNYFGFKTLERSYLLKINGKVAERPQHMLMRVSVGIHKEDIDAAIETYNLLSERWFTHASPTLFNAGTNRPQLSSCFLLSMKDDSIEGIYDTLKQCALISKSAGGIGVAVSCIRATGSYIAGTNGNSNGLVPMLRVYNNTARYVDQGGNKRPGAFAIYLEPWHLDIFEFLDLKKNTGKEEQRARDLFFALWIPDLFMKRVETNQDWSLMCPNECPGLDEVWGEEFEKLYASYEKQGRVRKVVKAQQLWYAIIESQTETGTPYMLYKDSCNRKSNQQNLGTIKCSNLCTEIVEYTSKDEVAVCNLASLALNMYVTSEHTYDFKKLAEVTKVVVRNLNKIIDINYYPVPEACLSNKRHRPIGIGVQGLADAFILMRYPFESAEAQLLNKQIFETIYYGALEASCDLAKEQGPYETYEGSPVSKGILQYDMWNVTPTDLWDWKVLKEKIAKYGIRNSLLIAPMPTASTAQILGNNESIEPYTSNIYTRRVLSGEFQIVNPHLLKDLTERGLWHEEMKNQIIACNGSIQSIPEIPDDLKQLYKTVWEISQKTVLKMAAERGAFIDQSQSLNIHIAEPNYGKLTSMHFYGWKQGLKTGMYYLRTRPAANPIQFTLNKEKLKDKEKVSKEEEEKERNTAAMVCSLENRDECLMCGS
T1 sequence (P31350 1-389): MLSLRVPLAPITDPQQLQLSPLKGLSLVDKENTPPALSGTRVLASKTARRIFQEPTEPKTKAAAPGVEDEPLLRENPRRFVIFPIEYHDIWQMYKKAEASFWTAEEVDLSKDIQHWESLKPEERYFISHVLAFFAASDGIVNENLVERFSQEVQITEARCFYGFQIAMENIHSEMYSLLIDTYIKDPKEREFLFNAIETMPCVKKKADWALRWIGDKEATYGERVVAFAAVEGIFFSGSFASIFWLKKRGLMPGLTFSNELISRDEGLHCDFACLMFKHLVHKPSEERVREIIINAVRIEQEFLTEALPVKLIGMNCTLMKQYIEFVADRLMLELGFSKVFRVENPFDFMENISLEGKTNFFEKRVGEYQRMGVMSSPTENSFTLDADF
Procedure: Ribonucleotide reductase catalyzes the conversion of ribonucleotides to deoxyribonucleotides (FIG. 1A). A unique feature of RR is the response of nucleoside metabolism to its inhibition. When RR is inhibited, the activity of thymidine kinase is increased. […] Traditionally, this effect is assayed in vitro by measuring the increase in the concentration of free TTP pool relative to the other deoxynucleotides. […] The salvage of deoxyadenosine is very low in normal cells allowing the measurement of DNA synthesis from the incorporation of de novo deoxyadenosine (see supra); furthermore since dAk activity is not affected by RR inhibition it can be used as the denominator for calculating fractional de novo thymidine synthesis. The relative inhibition of RR can be inferred from the reduction in de novo thymidine incorporation relative to dA into DNA. In a preferred embodiment of the invention, once the isotopic enrichment of dA and dT have been determined (as described, supra) for both a test and control subject or sample, the ratio of dT enrichment to dA enrichment is compared.
(§2) Non-small cell lung carcinoma cells (SW1573) were grown under standard conditions to approximately 50% confluence. Media was removed and replaced with media containing 4% ^2H2O, 1 µM dN's and hydroxyurea or gemcitabine at various concentrations. Cells were grown for and additional 24 hours after which they were harvested and frozen. Cell proliferation and RR inhibition was performed as described, supra.

[3] = biological target: T1, ribonucleotide reductase (RR); experiment: RR activity measured by 2H2O in hydroxyurea-treated MCF7 cells; type: cell-based; design: endogenous in cells; conditions: 24 hours
Procedure: Ribonucleotide reductase catalyzes the conversion of ribonucleotides to deoxyribonucleotides (FIG. 1A). A unique feature of RR is the response of nucleoside metabolism to its inhibition. When RR is inhibited, the activity of thymidine kinase is increased. […] Traditionally, this effect is assayed in vitro by measuring the increase in the concentration of free TTP pool relative to the other deoxynucleotides. […] In a preferred embodiment of the invention, once the isotopic enrichment of dA and dT have been determined (as described, supra) for both a test and control subject or sample, the ratio of dT enrichment to dA enrichment is compared.
Mammary carcinoma cells (MCF7) were grown under standard conditions to approximately 50% confluence. […] Cells continued to grow for 24 hours after which they were harvested, counted by coulter counter, and frozen.
Genomic DNA was isolated from frozen cells using a Qiagen Tissue Prep Kit according to the manufacturer's instructions. DNA digestion was performed after measuring the ratio of 260/280 to quantify the amount of isolated DNA. […]
HPLC Purification: dA and T were then isolated at room temperature by using a Waters HPLC system coupled with a UV detector. […] Normal nucleosides (dC, dG, dT, dA) were detected by UV absorption at 254 nm. […]

[4] = biological target: T2, ribonucleotide reductase (RR) (Mus musculus, UniProt P07742+P11157); experiment: RR inhibition in tumor and bone marrow of EMT7 tumor-bearing mice over 5 days of chemotherapy; type: in vivo; conditions: balb/C mice with EMT7 tumors, 125 mg/kg Gem every other day or 500 mg/kg HU daily, relative to untreated (control) mice
T2 construct: from tissue; host or cells: EMT7 mouse mammary carcinoma tumour and bone marrow of female balb/C mice
T2 sequence (P07742 1-792): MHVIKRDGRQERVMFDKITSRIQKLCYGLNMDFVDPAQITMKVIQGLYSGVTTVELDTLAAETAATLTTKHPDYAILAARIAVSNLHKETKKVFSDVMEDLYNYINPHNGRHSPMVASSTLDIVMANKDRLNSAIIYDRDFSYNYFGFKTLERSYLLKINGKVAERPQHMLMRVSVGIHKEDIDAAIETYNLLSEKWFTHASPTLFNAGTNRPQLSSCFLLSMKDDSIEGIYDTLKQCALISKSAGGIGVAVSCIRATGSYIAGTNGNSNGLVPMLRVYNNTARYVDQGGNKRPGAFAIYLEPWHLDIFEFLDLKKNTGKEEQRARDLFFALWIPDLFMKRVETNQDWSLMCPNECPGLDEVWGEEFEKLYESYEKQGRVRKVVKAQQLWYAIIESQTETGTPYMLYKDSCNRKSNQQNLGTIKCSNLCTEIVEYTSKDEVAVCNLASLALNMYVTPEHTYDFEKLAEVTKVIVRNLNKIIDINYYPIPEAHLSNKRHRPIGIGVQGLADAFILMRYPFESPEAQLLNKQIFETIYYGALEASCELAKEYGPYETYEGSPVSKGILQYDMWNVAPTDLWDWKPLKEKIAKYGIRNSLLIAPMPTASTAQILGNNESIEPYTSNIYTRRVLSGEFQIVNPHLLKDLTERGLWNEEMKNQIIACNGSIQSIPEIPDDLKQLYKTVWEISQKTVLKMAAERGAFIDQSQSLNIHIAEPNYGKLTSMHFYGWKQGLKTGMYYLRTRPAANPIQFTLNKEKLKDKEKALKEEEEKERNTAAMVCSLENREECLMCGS
T2 sequence (P11157 1-390): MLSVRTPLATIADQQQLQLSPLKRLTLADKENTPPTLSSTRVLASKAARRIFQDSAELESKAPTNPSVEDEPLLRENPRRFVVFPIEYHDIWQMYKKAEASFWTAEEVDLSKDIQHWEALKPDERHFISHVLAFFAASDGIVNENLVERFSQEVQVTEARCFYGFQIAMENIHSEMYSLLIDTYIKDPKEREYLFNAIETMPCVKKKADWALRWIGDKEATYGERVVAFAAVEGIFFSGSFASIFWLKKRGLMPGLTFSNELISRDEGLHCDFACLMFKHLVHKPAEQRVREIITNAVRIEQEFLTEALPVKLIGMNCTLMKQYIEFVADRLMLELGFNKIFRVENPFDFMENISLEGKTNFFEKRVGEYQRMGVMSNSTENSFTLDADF
Procedure: Female balb/C mice were implanted subcutaneously with approximately 10^6 EMT7 mouse mammary carcinoma cells in matrigel and allowed to reach ca.1500 mm^3.
as §1, with “Mice” for “Female balb/C mice were implanted subcutaneously with approximately 10^6 EMT7 mouse mammary carcinoma cells in matrigel and allowed to reach ca.1500 mm^3. Mice”

MCF7 cells = experiment: Cell proliferation in hydroxyurea-treated MCF7 cells (2H2O labeling and coulter counter); type: cell-based; conditions: 24 hours, hydroxyurea at various concentrations
SW1573 cells = experiment: Cell proliferation measured by 2H2O in SW1573 cells; type: cell-based; conditions: 24 hours
Procedure: as §2

[5] = system: EMT7 mouse mammary carcinoma cells; experiment: In vivo tumor cell proliferation by 2H2O incorporation over 5 days of chemotherapy; conditions: balb/C mice with EMT7 tumors, 125 mg/kg Gem every other day or 500 mg/kg HU daily
Procedure: as §1

SMILES	tumor volume [1]	concentration at which apparent maximal RR inhibition occurred [2]	inhibition at 6 µM [2] [%]	RR activity, % of control [2]	RR activity ([3]; doses 50 μM HU and above)	activity of RR ([3]; hydroxyurea at various concentrations)	bone marrow cell RR activity [4]	tumor cell RR activity [4]	rate of cell proliferation (MCF7 cells)	concentration at which inhibition of cell proliferation was evident (SW1573 cells) [µM]	tumor cell proliferation [5]	inhibition at 0.0016 µM ([2]; 1.6 nM) [%]	RR activity ([2]; 48 nM)
NC(=O)NO [hydroxyurea]	no change	6 µM	80	−20 % of control	dramatically inhibited	reduces	inhibited	inhibited	reduces the rate of cell proliferation	20	effect of HU and Gem on cell proliferation is observed		
Nc1ccn([C@@H]2O[C@H](CO)[C@@H](O)C2(F)F)c(=O)n1 [gemcitabine]	no change			~0 % of control			inhibited	inhibited			effect of HU and Gem on cell proliferation is observed	70	nearly abolishes
